According to publication PMC6594156 (Phytotherapy research : PTR, 2015):

Columns and labels:
UGT1A3 = biological target: T1, UGT1A3 (Homo sapiens, UniProt P35503); assay: recombinant UGT 4-MU glucuronidation, HPLC, single concentration […]; assay type: biochemical; settings: read-out: 1A3
T1 sequence (P35503 29-534): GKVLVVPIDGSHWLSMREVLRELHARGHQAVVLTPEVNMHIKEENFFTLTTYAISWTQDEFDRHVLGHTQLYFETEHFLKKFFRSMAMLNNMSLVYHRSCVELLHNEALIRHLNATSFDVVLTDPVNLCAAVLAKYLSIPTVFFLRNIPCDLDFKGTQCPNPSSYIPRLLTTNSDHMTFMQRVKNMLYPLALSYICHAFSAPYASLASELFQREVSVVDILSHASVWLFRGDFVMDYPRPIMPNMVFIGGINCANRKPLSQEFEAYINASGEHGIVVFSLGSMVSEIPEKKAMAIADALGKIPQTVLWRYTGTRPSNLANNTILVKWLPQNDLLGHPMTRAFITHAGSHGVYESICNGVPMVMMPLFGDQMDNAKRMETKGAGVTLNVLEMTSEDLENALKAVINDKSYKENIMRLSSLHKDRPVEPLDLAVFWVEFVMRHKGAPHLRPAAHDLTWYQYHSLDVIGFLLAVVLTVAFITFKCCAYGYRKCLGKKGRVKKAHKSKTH

UGT2B7 = biological target: T2, UGT2B7 (Homo sapiens, UniProt P16662); assay: as above; assay type: biochemical; settings: read-out: 2B7
T2 sequence (P16662 24-529): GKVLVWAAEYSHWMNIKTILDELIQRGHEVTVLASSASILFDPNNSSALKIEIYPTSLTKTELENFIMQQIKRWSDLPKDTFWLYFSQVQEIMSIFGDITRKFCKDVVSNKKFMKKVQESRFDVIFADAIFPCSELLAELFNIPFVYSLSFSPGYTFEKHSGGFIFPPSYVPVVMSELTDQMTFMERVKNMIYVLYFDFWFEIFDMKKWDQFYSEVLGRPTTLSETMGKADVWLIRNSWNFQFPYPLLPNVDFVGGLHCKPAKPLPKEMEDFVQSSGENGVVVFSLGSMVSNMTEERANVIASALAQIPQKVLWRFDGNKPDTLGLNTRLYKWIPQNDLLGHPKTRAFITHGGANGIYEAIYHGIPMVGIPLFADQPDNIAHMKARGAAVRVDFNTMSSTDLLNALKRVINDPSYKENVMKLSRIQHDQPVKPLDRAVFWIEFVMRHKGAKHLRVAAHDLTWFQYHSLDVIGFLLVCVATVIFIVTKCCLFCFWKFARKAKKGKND

Structure (SMILES)	activity at 100 µM (UGT1A3)	activity at 100 µM (UGT2B7)
COc1cc2c(c(OC)c1OC)-c1c(cc(OC)c(OC)c1OC)C[C@H](C)[C@H](C)C2 [schisandrin A]	0%	–
COc1cc2c(c(O)c1OC)-c1c(cc(OC)c(OC)c1OC)C[C@@H](C)[C@@H](C)C2 [schisanhenol]	–	7.9%
